Results as given in patent US4029671A, “3-[(5-nitro-2-imidazolyl)pyrazol-5-yl]oxamic acid derivatives” (priority 1976, dated 1977).
Structures can show the parent of a compound that is named as a salt.

Experiments:
[1] = system: Bacteroides fragilis sp. fragilis 104; assay: Agar dilution susceptibility of anaerobic bacteria (Chart 1); type: cell-based; conditions: Bacteroides fragilis, 24 h, read-out: 24 Hr. MIC
[2] = system: Peptococcus asaccharolyticus 1302; assay: as above; type: cell-based; conditions: Peptoniphilus asaccharolyticus, 1302, 24 h, read-out: 24 Hr. MIC
[3] = system: Fusobacterium necrophorum 6054A; assay: as above; type: cell-based; conditions: Fusobacterium necrophorum, 6054A, 24 h, read-out: 24 Hr. MIC
[4] = system: Bacteroides fragilis sp. fragilis 9; assay: as above; type: cell-based
[5] = system: Bacteroides fragilis sp. fragilis 110; assay: as above; type: cell-based
[6] = system: Bacteroides fragilis sp. fragilis 112; assay: as above; type: cell-based
[7] = system: Bacteroides fragilis sp. thetaiotaomicron 1438; assay: as above; type: cell-based
[8] = system: Bacteroides fragilis sp. fragilis 113; assay: as above; type: cell-based
[9] = system: Peptostreptococcus anaerobius 1428; assay: as above; type: cell-based; conditions: Peptostreptococcus anaerobius, 1428, 24 h, read-out: 24 Hr. MIC
[10] = system: Bacteroides vulgatis 1211; assay: as above; type: cell-based; conditions: Bacteroides, 1211, 24 h, read-out: 24 Hr. MIC
[11] = system: Bacteroides fragilis sp. fragilis 1470; assay: as above; type: cell-based
[12] = system: Bacteroides fragilis sp. fragilis 106; assay: as above; type: cell-based
[13] = system: Bacteroides fragilis sp. thetaiotaomicron 1900A; assay: as above; type: cell-based
[14] = system: Fusobacterium symbiosum 1470; assay: as above; type: cell-based; conditions: Fusobacterium, 1470, 24 h, read-out: 24 Hr. MIC
[15] = system: Peptostreptococcus intermedius 1264; assay: as above; type: cell-based; conditions: Peptostreptococcus, 1264, 24 h, read-out: 24 Hr. MIC
[16] = system: Bacteroides fragilis sp. fragilis 1874; assay: as above; type: cell-based
[17] = system: Clostridium perfringens 81; assay: microbe, parasite or virus in culture; type: cell-based; conditions: Clostridium perfringens, 81, 24 h, read-out: 24 Hr. MIC, agar dilution, 37° C.
[18] = system: Bacteroides fragilis sp. fragilis 103; assay: Agar dilution susceptibility of anaerobic bacteria (Chart 1); type: cell-based
[19] = system: Bacteroides fragilis sp. fragilis 2; assay: as above; type: cell-based; conditions: Bacteroides fragilis, 24 h, read-out: 24 Hr. MIC
[20] = system: Bacteroides fragilis sp. fragilis 107; assay: as above; type: cell-based; conditions: Bacteroides fragilis, 24 h, read-out: 24 Hr. MIC
[21] = system: Bacteroides melaninogenicus 2736; assay: as above; type: cell-based; conditions: 2736, 24 h, read-out: 24 Hr. MIC
[22] = system: Bacteroides fragilis sp. fragilis 111; assay: as above; type: cell-based
[23] = system: Bacteroides fragilis sp. fragilis 1451; assay: as above; type: cell-based; conditions: Bacteroides fragilis, 24 h, read-out: 24 Hr. MIC
[24] = system: Peptococcus prevoti 1281; assay: as above; type: cell-based; conditions: 24 h, read-out: 24 Hr. MIC, agar dilution, 37° C.
[25] = system: Bacteroides fragilis sp. vulgatis 1563; assay: as above; type: cell-based
[26] = system: Eubacterium aerofaciens 1235; assay: as above; type: cell-based; conditions: Collinsella aerofaciens, 1235, 24 h, read-out: 24 Hr. MIC
[27] = system: Bacteroides corrodens 1874; assay: as above; type: cell-based; conditions: Eikenella corrodens, 1874, 24 h, read-out: 24 Hr. MIC
[28] = system: Clostridium septicum 1128; assay: as above; type: cell-based; conditions: Clostridium septicum, 1128, 24 h, 37° C.
Procedure: The susceptibility of anaerobic bacteria, both gram positive and gram negative, to a representative number of the novel compounds of this application was determined using the agar dilution method. The bacteria used were isolated from patients hospitalized at the Indiana Univerisity Medical Center. The isolates were identified in the anaerobe laboratory of the Medical Center by the criteria established by Dowell et al., Laboratory Methods in Anaerobic Bacteriology. Public Health Serv. Publ. NO. 1803 (1968) [Center for Disease Control, Atlanta, Ga.]; and by Smith et al., The Pathogenic Anaerobic Bacteria, pages 96- 136 (1968) [Charles C. Thomas, Publisher, Springfield, Ill.]. All the organisms were maintained in chopped meat glucose medium (Scott Labs) at room temperature.
The method used for the agar dilution tests was based on the studies of Sutter et al., Antimicrob. Ag. Chemother. 3, 188-193 (1973). The strains of anaerobic bacteria were grown in 16×× 120 mm. tubes for 16 to 18 hours in Thioglycolate medium without indicator-- 135C (Becton, Dickinson and Co.), to which was added 5 mcg. of hemin per milliliter prior to autoclaving, plus 1 mg. of sodium bicarbonate and 0.1 mcg. of filter-sterilized menadione per milliliter after autoclaving. The strains were adjusted to the turbidity of the No. 1 McFarland standard in Thioglycolate medium without indicator-- 135C containing an additional 0.13 percent Bacto-agar (Difco). Each strain was then applied to the surface of the petri plate (100 mm× 15 mm.) by means of a replicator.
For the agar dilution studies, two-fold dilutions of the test compounds were prepared in deionized water to which was then added laked sheep blood and filter-sterilized menadione so the concentrations after the agar dilution were 5 percent and 10 mcg./ml. respectively. An equal volume of double strength Brucella agar (Becton, Dickinson and Co.) was mixed with each dilution in a water bath held at 50° C. and then poured onto the petri dishes.
All of the procedures were done inside a plastic glove box, except for the incubation of the growth tubes and the pouring of the plates. After the plates hardened, they were put inside the glove box for a minimum of 2 hours before they were inoculated. Generally, the glove box procedures of Aranki et al., Applied Microbiology 17, 568-576 (1969), were followed, but the following modifications were used. Dry materials were introduced into the glove box by evacuating the lock to 28 inches of mercury and filling once with nitrogen gas, followed by evacuating in the same manner and filling with an 80 percent nitrogen plus 10 percent CO2 plus 10 percent hydrogen gas mixture. Liquid media and agar plates were introduced into the glove box by evacuating the lock to 10 inches of mercury and filling with gas four times. The nitrogen gas was used to fill the lock for the first two cycles of evacuation, with the gas mixture described above used for the final two fillings.
All the plates were incubated at 37° C. in Gas Pak jars (Becton, Dickinson and Co.) containing palladium-coated alumina catalysts (reactivated after each use). The results of the agar dilution tests were read after about 24 hours of incubation. The minimum inhibitory concentration (MIC) was recorded as the lowest concentration of test compound at which there was no growth.
The test compounds are identified by the number of the example describing their preparation. The antibiotics clindamycin (C), and erythromycin (E) were also run simultaneously with the novel compounds of this application,for comparison purposes, and the results are included in Chart 1 below.

[29] = system: Bacteroides fragilis sp. fragilis 62; assay: as above; type: cell-based
[30] = system: Bacteroides melaninogenicus 1856/28; assay: as above; type: cell-based; conditions: Prevotella intermedia, 1856/28, 24 h, read-out: 24 Hr. MIC
[31] = system: Propionibacterium acnes 79; assay: as above; type: cell-based; conditions: Cutibacterium acnes, 79, 24 h, read-out: 24 Hr. MIC
[32] = system: Bacteroides fragilis sp. fragilis 1877; assay: as above; type: cell-based
[33] = system: Bacteroides fragilis sp. fragilis 108; assay: as above; type: cell-based
[34] = system: Actinomyces israelii W855; assay: as above; type: cell-based; conditions: 24 h, agar dilution, 37° C., read-out: 24 Hr. MIC
[35] = system: Bacteroides fragilis sp. fragilis 1936B; assay: as above; type: cell-based; conditions: Bacteroides fragilis, 24 h, read-out: 24 Hr. MIC
[36] = system: Salmonella typhimurium; assay: Control of infections caused by Salmonella typhimurium in chickens (Chart 2); type: in vivo; conditions: 60 mg./kg. subcutaneous, day-old chicks, 5 per group, 6 days observation
Procedure: The efficacy of the novel compounds in the control of infections caused by Salmonella typhimurium in chickens was evaluated in the following manner. The test was carried out using day-old chicks weighing approximately 35 g. each. The chicks were divided into groups of 5 chicks per each dosage level. A portion of the chicks received the test compound which was suspended in 0.2 ml. of polyethylene glycol 200 and administered subcutaneously in the neck. […] All the chicks were challenged with a 1:200 dilution of a culture of the organism, 0.1 ml. of the dilution being injected into each chick in the leg intramuscularly. […] The test compounds are identified in the same manner as set forth in experiment 1. In the chart, column 1 lists the compounds tested; column 2, the dosage of test compound in mg./kg.; and column 3, the survival ratio.

[37] = Bacteroides fragilis, 24 h, read-out: 24 Hr. MIC

CC[C@H]1OC(=O)[C@H](C)[C@@H](O[C@H]2C[C@@](C)(OC)[C@@H](O)[C@H](C)O2)[C@H](C)[C@@H](O[C@@H]2O[C@H](C)C[C@H](N(C)C)[C@H]2O)[C@](C)(O)C[C@@H](C)C(=O)[C@H](C)[C@@H](O)[C@]1(C)O [E, erythromycin, reference compound]
16 µg/mL: MIC [5, 37]
1 µg/mL: MIC [2] | MIC [7, 37] | MIC [10] | MIC [17] | MIC [21] | MIC [25, 37] | MIC [28]
2 µg/mL: MIC [1] | MIC [8, 37] | MIC [20] | MIC [22, 37] | MIC [32, 37] | MIC [33, 37] | MIC [35]
8 µg/mL: MIC [3] | MIC [11, 37] | MIC [29, 37]
> 128 µg/mL: MIC [24]
4 µg/mL: MIC [4, 37] | MIC [12, 37] | MIC [18, 37] | MIC [19] | MIC [30]
32 µg/mL: MIC [6, 37]
≤ 0.5 µg/mL: MIC [9] | MIC [14] | MIC [15] | MIC [26] | MIC [27] | MIC [31] | MIC [34]
> 64 µg/mL: MIC [13, 37]
0.5 µg/mL: MIC [16, 37] | MIC [23]

CCOC(=O)C(=O)Nc1c(C#N)c(-c2ncc([N+](=O)[O-])n2C)nn1C [Example 3, N-[4-Cyano-1-methyl-3-(1-methyl-5-nitroimidazol-2-yl)pyrazol-5-yl]oxamic acid, ethyl ester, potassium salt]
0.125 µg/mL: 24 Hr. MIC ([18]; agar dilution, 37° C., Bacteroides fragilis sp. fragilis 103, potassium salt)
0.25 µg/mL: 24 Hr. MIC ([4]; agar dilution, 37° C., Bacteroides fragilis sp. fragilis 9, potassium salt) | 24 Hr. MIC ([6]; agar dilution, 37° C., Bacteroides fragilis sp. fragilis 112, potassium salt) | 24 Hr. MIC ([11]; agar dilution, 37° C., Bacteroides fragilis sp. fragilis 1470, potassium salt) | 24 Hr. MIC ([12]; agar dilution, 37° C., Bacteroides fragilis sp. fragilis 106, potassium salt) | 24 Hr. MIC ([16]; agar dilution, 37° C., Bacteroides fragilis sp. fragilis 1874, potassium salt) | 24 Hr. MIC ([22]; agar dilution, 37° C., Bacteroides fragilis sp. fragilis 111, potassium salt) | 24 Hr. MIC ([25]; agar dilution, 37° C., Bacteroides fragilis sp. vulgatis 1563, potassium salt) | 24 Hr. MIC ([32]; agar dilution, 37° C., Bacteroides fragilis sp. fragilis 1877, potassium salt) | 24 Hr. MIC ([33]; agar dilution, 37° C., Bacteroides fragilis sp. fragilis 108, potassium salt)
0.5 µg/mL: 24 Hr. MIC ([5]; agar dilution, 37° C., Bacteroides fragilis sp. fragilis 110, potassium salt) | 24 Hr. MIC ([7]; agar dilution, 37° C., Bacteroides fragilis sp. thetaiotaomicron 1438, potassium salt) | 24 Hr. MIC ([8]; agar dilution, 37° C., Bacteroides fragilis sp. fragilis 113, potassium salt) | 24 Hr. MIC ([13]; agar dilution, 37° C., Bacteroides fragilis sp. thetaiotaomicron 1900A, potassium salt) | 24 Hr. MIC ([29]; agar dilution, 37° C., Bacteroides fragilis sp. fragilis 62, potassium salt)
3/5: Survival Ratio ([36]; potassium salt)

Cn1nc(-c2ncc([N+](=O)[O-])n2C)c(C#N)c1NC(=O)C(=O)NO [Example 9, N-[4-Cyano-1-methyl-3-(1-methyl-5-nitroimidazol-2-yl)pyrazol-5-yl]-N'-hydroxyoxamide]
4/5: Survival Ratio [36]
